# Laboratory results reported in ChEMBL document CHEMBL3507680, “University of Dundee, Gates Library screen for HepG2 cell viability”.
# Test: Human HepG2 cell viability assay in 384 well format
# Type: toxicity, cell-based
# Parameters: dose 125 nL, time 70.5 hour; cytotoxicity at 70.5 h: concentration not given beside the values
# Settings: HepG2 cells, read-out: Inhibition
row,SMILES,cytotoxicity at 70.5 h [%]
1,O=C(NCCS(=O)(=O)N1CCc2ccccc21)c1c(O)cc(F)cc1F,-2.02
2,COc1cccc2cc(CNC(=O)N3CCOC(C)(C)C3)oc12,14
3,O=C(Cn1cnc2ccsc2c1=O)NCCCc1nnc2ccccn12,26.5
4,O=C(NC[C@H]1OC[C@@H](NCc2ccccc2)[C@@H]1O)Nc1ccccc1,-3.94
5,CC(C)C(=O)N1CCC(Cc2nccnc2Nc2ccccn2)CC1,-5.25
6,C[C@@H]1CN(Cc2ccccc2)CCN1C(=O)NCc1nccs1,0.13
7,CNC(=O)[C@@H](c1ccccc1)N1CCC[C@H]1C(=O)NCc1cccnc1,-2.18
8,Cc1c[nH]c(C2COCCN2C(=O)c2ccc(=O)[nH]n2)n1 (stereo not drawn),-4.98
9,O=C(CC1CC1)N1C[C@@H](O)[C@H](N2CCN(c3ccccc3)CC2)C1,22.4
10,Cc1nnc(N2CCN(C(=O)NC3CC3)CC2)c(C(N)=O)c1C,-15.7
11,CCCn1cc(C(=O)NCCCC(N)=O)c2ccccc21,-2.51
12,Fc1cccc(CN2CCC(c3noc(-c4ccncc4)n3)CC2)c1F,2.58
13,COCCN1C(=O)CCC12CCCN(Cc1ccccc1F)C2 (stereo not drawn),31.9
14,c1ccc(N2CCCC2)c(NCc2ccncc2)c1,-39.9
15,Fc1ccc(-c2n[nH]cc2CNCCn2cccn2)cc1,-4.83
16,OCC1(O)CCN(Cc2noc(-c3ccccc3)n2)CC1,-6.37
17,CC(C)(C)c1cc(NC(=O)CN2CCCC(Cn3cncn3)C2)on1 (stereo not drawn),25.7
18,CCOc1ccnc(NCc2nc(C)cc(C(F)(F)F)n2)n1,-0.888
19,O=C(c1cnco1)N1C[C@@H](O)[C@H](Oc2cccc(F)c2)C1,14.4
20,O=C(c1cscn1)N1CCC2(CCN(S(=O)(=O)c3ccccc3)C2)C1 (stereo not drawn),-17.7
21,Cc1nn(C)c(C)c1C1CCCN1Cc1nnc(C2CC2)n1C (stereo not drawn),-1.77
22,Cc1cccc(Cn2ccc(NS(C)(=O)=O)n2)c1,-4.99
23,CC(C)c1nc(/C=C/c2ccc(O)c(Cl)c2)ncc1C(=O)O,-4.86

row,SMILES,cytotoxicity at 70.5 h [%]
1,Cn1ccc2c(NC(=O)Cn3ncc4c(c3=O)CCCCC4)cccc21,3.29
2,CN1CCN(C(=O)N2CC[C@@](O)(c3ccccc3)[C@H]3CCCC[C@@H]32)CC1,-5.89
3,CCOC(=O)N1CCN(c2nc(C)ncc2CC)CC1,1.02
4,c1csc(CN2CCC3(CCCN3CC3CC3)CC2)n1,-4.63
5,Cc1noc(C)c1-c1ccnc(C2CCNCC2)c1,-2.34
6,Cc1nc(CN2CCCC(NCc3csc(C(C)(C)C)n3)C2)no1 (stereo not drawn),-6.65
7,Cc1ccc(N(C)Cc2nnnn2C2CC2)c(C)c1,-5.96
8,COc1ncccc1NC(=O)N1CCOCC1C (stereo not drawn),4.15
9,Cc1ccsc1C(CNC(=O)c1cc(=O)c2ccccc2[nH]1)N(C)C (stereo not drawn),-9.06
10,Cc1cnn(CC2CCCCN2C(=O)c2ccccc2-n2cccn2)c1 (stereo not drawn),-17.3
11,Cc1nc[nH]c1-c1nccn1CCN1CCCC1=O,24.3
12,c1ccc(-c2cc(CNCCCC3CCOC3)c3nnnn3c2)cc1 (stereo not drawn),5.9
13,O=C(NC1CCC1)c1cccc(S(=O)(=O)NCc2nc(C3CC3)no2)c1,6.45
14,CN1CC(=O)N(c2cccc(F)c2)CC12CCN(Cc1nccs1)C2 (stereo not drawn),-1.43
15,N#Cc1ccc(C(=O)NCC2(N3CCOCC3)CCCC2)nc1,-4.06
16,CCOc1ccccc1OCCN(C)Cc1nccn1C,-5.37
17,CCc1csc(C2CCCN(C(=O)c3ccccn3)C2)n1 (stereo not drawn),-7.06
18,O=C(NCc1ccc(F)cc1)N1CCN(CC(O)C2CC2)CC1 (stereo not drawn),-2.01
19,O=C(c1ccc(NCc2cccc(F)c2)cc1)N1CCCC1,1.69
20,Cc1ccc(CNC(=O)c2ccc(S(=O)(=O)N3C[C@@H]4C[C@H]3CN4)cc2)o1,-2.7
21,CCCS(=O)(=O)N1C[C@@H]2COC[C@]2(CN2CCOCC2)C1,-10.5
22,CC(c1nc(C2CC2)no1)N1CCc2c(ncn2C)C1 (stereo not drawn),0.478
23,Cn1cc(N2CC3(COCCN(Cc4ccccn4)C3)OCC2=O)cn1 (stereo not drawn),-11.1

row,SMILES,cytotoxicity at 70.5 h [%]
1,c1csc(CN2CCCN(c3ccc(Cn4ccnc4)cn3)CC2)c1,-5.7
2,Cc1cc(CN2CC[C@H]3C[C@@H](c4nccs4)O[C@@H]3C2)no1,-2.76
3,O=C(c1cccc(-n2cccn2)c1)N1CCCOC(Cn2cccn2)C1 (stereo not drawn),12.9
4,Cc1ccc(C(=O)NCCC2CCN(C)CC2)cc1N(C)S(C)(=O)=O,24
5,CCOC1COC2(CCN(c3ncc(C)cn3)CC2)C1 (stereo not drawn),-2.14
6,CNC(=O)N1CC[C@H]2N(C)CC[C@@]2(C(=O)N2CCOCC2)CC1,-4.42
7,CCN(CC)C(CNC(=O)c1ccc(-n2cncn2)cc1)c1ccsc1 (stereo not drawn),-3.69
8,CCOCC(=O)N1CCC(C2CCN(Cc3ccc(Cl)cc3)C2)CC1 (stereo not drawn),-2.4
9,Cc1cc(C)n(Cc2cc(C(=O)N[C@H]3CCCCNC3=O)n[nH]2)n1,-3.71
10,CC1CN(C(=O)NCc2cccc(C#N)c2)CCN1CC(F)(F)F (stereo not drawn),-7.28
11,CS(=O)(=O)N1CCN(C(=O)CCn2cccn2)CC1,-6.72
12,O=C(c1ccco1)N1CCN2C[C@H](OCc3cccnc3)C[C@H]2C1,-12.3
13,Cc1cc(C)n(C2CN(CC(=O)NCC(C)(C)N3CCOCC3)C2)n1,0.262
14,Cc1nc(COCC2CN(C(=O)N(C)C)Cc3nccn3C2)cs1 (stereo not drawn),-5.94
15,Cc1ccccc1Cn1cnc2oc(C)c(C(=O)O)c2c1=O,-11.3
16,CCN(CC)C(=O)COc1ccnc2cc(OC)ccc12,-19.4
17,Cc1ncc(C(=O)N2CC(C(=O)N3CCOCC3)C2)c(C)n1,-12.5
18,Cn1nnc2c1CCN(Cc1ccncc1)C2COCC1CC1 (stereo not drawn),-9.81
19,CN(Cc1nnc(C2CC2)n1C)C1CCN(CCc2cccs2)C1 (stereo not drawn),-6.98
20,COc1ccc(NC(=O)CSc2nncn2-n2cccc2)c(OC)c1,-14.5
21,CS(=O)(=O)c1ccc(OCCNCc2cccc(F)c2)cc1,-2.08
22,CCN(CC(=O)Nc1cc(Cl)ccc1C)C(=O)c1ccc(=O)[nH]n1,-2.64
23,O=C(NCCn1ccnc1)C1(c2ccc3c(c2)OCCO3)CCCC1,-12

row,SMILES,cytotoxicity at 70.5 h [%]
1,CC(C)[C@H]1CN(Cc2ccccn2)C[C@@H]1NC(=O)CCS(C)(=O)=O,-4.06
2,Cc1ccc(C(=O)N2CCN(CCCSCC#N)CC2)cc1F,-7.64
3,COc1ccc(C(C)NCc2scnc2C)cc1Cn1cccn1 (stereo not drawn),0.409
4,CCCNC(=O)C(C)Nc1cccc(Oc2ccc(C#N)cn2)c1 (stereo not drawn),24.3
5,CCC(N)c1ccccc1OCC(=O)N1CCCC1 (stereo not drawn),-7.75
6,O=C(c1cc(Br)ccc1-n1cnnn1)N1CCCC1,-3.68
7,CC(C)(NCC(=O)N1CCCC(C(N)=O)C1)c1ccc(Cl)cc1 (stereo not drawn),-3.83
8,CNC(=O)c1cccc(CC2COCCN(Cc3ccc(C)o3)C2)n1 (stereo not drawn),-2.79
9,CCn1ccnc1CN1CCCC1Cn1cc(C)cn1 (stereo not drawn),4.18
10,N#Cc1c(CN2CCCC2Cn2cncn2)cn2ccccc12 (stereo not drawn),-12.3
11,Cc1cccc(CO[C@H]2CN(c3nnc(C)s3)[C@@H]3CCCO[C@H]23)n1,0.219
12,Cc1nc(N2CCOCC2)nc2c1CCN(C(=O)NC1CCCC1)CC2,20.6
13,COc1cccc(N2CCN(C(=O)C(C)Oc3ccccc3)CC2=O)c1 (stereo not drawn),20.9
14,CCOCCCNC(=O)CN(c1cc(C)cc(C)c1)S(C)(=O)=O,-14.2
15,Cc1noc(C)c1CC(=O)N1CCCN(Cc2cscn2)CC1,-2.59
16,O=C(c1cncc(Br)c1)N1CCCc2ccc(F)cc21,-5.54
17,CN1N=C(C(=O)NCCc2ccc(OC3CCCC3)cc2)CCC1=O,1.04
18,Nc1cc(C(=O)N2CCC(Oc3cccc(C(F)(F)F)c3)CC2)ccn1,-3.83
19,Cc1noc(CCCC(=O)NC(C)c2ccccn2)n1 (stereo not drawn),-0.329
20,COc1cccc2c(=O)n(Cc3nc(C)cc(O)n3)cnc12,-12.5
21,CC(C)c1nc2c(n1C)CCN(Cc1nc(-c3cccs3)no1)C2,-9.62
22,CC(C)n1[nH]c(=O)c2c1NC(=O)CC2c1cccnc1 (stereo not drawn),9.01
23,Cc1cc(CN(C)C(=O)c2ccc(OCC(F)(F)F)nc2)no1,0.93

row,SMILES,cytotoxicity at 70.5 h [%]
1,CC(C)OCCCNC(=O)c1cccnc1N1CCOCC1,39.8
2,CN1CCCN(C(=O)c2nc3sccn3c2-c2ncc[nH]2)CC1,-13
3,COCCN(Cc1ccoc1)C(=O)c1c(F)cccc1Cl,-0.424
4,N#Cc1ccc(C(=O)N2CCc3c(COCC4CC4)cncc3C2)cc1,-5.21
5,CCN1CCN(C2CCN(Cc3nc(C4CC4)no3)CC2)C1=O,-5.25
6,CCN(C(=O)CCc1ccc2[nH]ccc2c1)C1CC(=O)NC1=O (stereo not drawn),-2.25
7,CCn1cnnc1CNC(=O)N(C)Cc1ccc2c(c1)OCO2,-10.2
8,FC(F)(F)CCN(Cc1ccon1)C1CCC1,-7.34
9,O=C(CC1CC1)N[C@@H]1CN(C(=O)c2ccoc2)C[C@@H]2CCCO[C@@H]21,-12.7
10,CC(=O)c1c[nH]c(C(=O)N2CCN(C(C(N)=O)c3ccccc3)CC2)c1 (stereo not drawn),47.9
11,CC(C)(O)c1cn(C2CCN(C(=O)CCc3ccncc3)CC2)nn1,-4.73
12,O=C(c1coc(COc2ccccc2F)n1)N1CCC[C@H]1CO,-2.42
13,Cn1cc(N2CCCC(NCc3cccc4c3OCCCO4)C2)cn1 (stereo not drawn),-14.6
14,CC(C)[C@H]1CN(Cc2ccccc2C#N)C[C@@H]1NC(=O)C1CCOCC1,-13.1
15,COc1c[nH]c(C(=O)N2CCN(c3cccc(Cl)c3)CC2)cc1=O,-8.19
16,c1ccc2nc(N3CCCC(Cn4cncn4)C3)cnc2c1 (stereo not drawn),-1.5
17,c1ccc(Cc2cccc(C3CCCN3C3CCOCC3)n2)cc1 (stereo not drawn),-13.2
18,Fc1cnc(N2CCCn3c(nnc3Cn3cccc3)C2)nc1,27.5
19,O=C(Cc1cccs1)NCC1(O)CCSC1 (stereo not drawn),-5.51
20,CN(C)C[C@@H]1CN(C(=O)c2cc(S(N)(=O)=O)ccc2F)C[C@@H]1CO,-4.5
21,O=C1CC(c2ccccc2)c2c(c(C(=O)O)cn2-c2ccccc2)N1 (stereo not drawn),-10.7
